The values below are quoted from earlier work in patent publication US20220218877A1, “C[…] COMPOSITIONS” ([…], priority 2019, published 2022).

The conditions of the series: depending upon the conditions.
In the case of `CCCCCc1cc(O)c2c(c1)OC(C)(C)c1ccc(C)cc1-2` [cannabinol], the “Solubility in aqueous solutions” value was “a few micrograms/ml or less”.

As for cannabidiol [CBD], the “Solubility in aqueous solutions” value is recorded as “a few micrograms/ml or less”.

Regarding `CCCCCc1cc(O)c2c(c1)OC(C)(C)[C@@H]1CCC(C)=C[C@@H]21` [THC, tetrahydrocannabinol], the “Solubility in aqueous solutions” value is listed as “a few micrograms/ml or less”.
